Experimental data: patent US9700344B2, “Method for treating chronic wounds with an extracellular polymeric substance solvating system” (priority 2008, dated 2017)

Experiments:
[1] = system: E. faecalis; assay: Quantitative PCR analysis of relative bacterial levels in treated biofilms; format: cell-based, Enterococcus faecalis V583; conditions: DNA extraction and quantitative PCR of treated mixed biofilm; Control 29.7
Procedure: (§1) Pseudomonas aeruginosa PAO1 (ATCC number: BAA-47), Enterococcus faecalis V583 (ATCC number: 700802), and Staphylococcus aureus Mu50 (ATCC number: 700699) grown on agar plates made from tryptic soy broth (TSB, Sigma Chemical Co., St. Louis, Mo., USA) were inoculated into TSB broth and grown at 37° C. in a shaker for 16 hr. An aliquot was diluted in TSB broth to a series of dilutions for each individual bacteria type. The diluted bacteria were plated out to count colony forming units (CFU). They were further diluted to 1×10^6 cfu ml^−1 and mixed equally as inoculums. Bolton broth (Oxoid Ltd, Basingstock, Hampshire, England) with 50% Bovine plasma (Biomeda, Foster City, Calif., USA) was used for biofilm formation media. […]
(§2) In a series of runs the formed biofilms were washed and then incubated with the three CAZS solutions, then associated with a 30 μg/ml solution of Gentamicin sulfate (MP Biomedicals, Illkirch, France) in distilled water, or with a 20 ppm solution of 2,4,4′-trichloro-2-hydroxydiphenyl ether (Triclosan, KIC Chemicals, New Paltz, N.Y., USA) dissolved in propylene glycol (ScienceLab, Houston, Tex., USA). […] The biomass dry weight was measured as the total weight minus the empty tube weight measured before use. […] A separate set of tubes in triplicate was used for DNA extraction and quantitative PCR analysis to determine relative bacterial levels in the treated biofilms.

[2] = system: biofilms of Pseudomonas aeruginosa PAO1, Enterococcus faecalis V583 and Staphylococcus aureus Mu50; assay: Biofilm dry weight after incubation of formed three-species biofilms with treatments; format: cell-based; conditions: biomass dry weight of treated mixed biofilm, 80° C. 48 hours drying; incubation 37° C., 140 rpm; triplicate; Control 126
Procedure: as §1, §2

[3] = system: P. aeruginosa; assay: Quantitative PCR analysis of relative bacterial levels in treated biofilms; format: cell-based, Pseudomonas aeruginosa PAO1; conditions: DNA extraction and quantitative PCR of treated mixed biofilm; Control 46.8
Procedure: as §1, §2

[4] = system: S. aureus; assay: as above; format: cell-based, Staphylococcus aureus Mu50; conditions: DNA extraction and quantitative PCR of treated mixed biofilm; Control 23.5
Procedure: Pseudomonas aeruginosa PAO1 (ATCC number: BAA-47), Enterococcus faecalis V583 (ATCC number: 700802), and Staphylococcus aureus Mu50 (ATCC number: 700699) grown on agar plates made from tryptic soy broth (TSB, Sigma Chemical Co., St. Louis, Mo., USA) were inoculated into TSB broth and grown at 37° C. in a shaker for 16 hr. An aliquot was diluted in TSB broth to a series of dilutions for each individual bacteria type. The diluted bacteria were plated out to count colony forming units (CFU). They were further diluted to 1×10^6 cfu ml^−1 and mixed equally as inoculums. Bolton broth (Oxoid Ltd, Basingstock, Hampshire, England) with 50% Bovine plasma (Biomeda, Foster City, Calif., USA) was used for biofilm formation media. Glass 16×150 mm test tubes with caps were autoclaved, and 7 ml biofilm formation media aseptically dispensed in each tube. The normalized cultures of the three bacteria were mixed and 10 μl portions of the combined and normalized 1×10^6 CFU ml^−1 culture were inoculated into glass tubes by ejecting the pipette tips into the tubes. […]
The resulting mixtures were stirred at 37° C. and 140 rpm for 1, 2, 3 and 4 hours. […] The biomass dry weight was measured as the total weight minus the empty tube weight measured before use. […] A separate set of tubes in triplicate was used for DNA extraction and quantitative PCR analysis to determine relative bacterial levels in the treated biofilms.

Row | Compound | Relative Bacterial Levels E. faecalis [1] | Dry Weight [2] [mg] | Relative Bacterial Levels P. aeruginosa [3] | Relative Bacterial Levels S. aureus [4]
1 | Oc1cc(Cl)ccc1Oc1ccc(Cl)cc1Cl [20 ppm Triclosan, 2,4,4′-trichloro-2-hydroxydiphenyl ether] | 39.9 | 88 | 60.0 | 0.13
2 | Gentamicin sulfate [20 mg/ml Gentamicin] | 50.3 | 78 | 0.2 | 49.6
